From ChEMBL document CHEMBL4014283, “Structural insights of SmKDAC8 inhibitors: Targeting Schistosoma epigenetics through a combined structure-based 3D QSAR, in vitro and synthesis strategy” (Bioorg Med Chem, 2017)
The source made the active and inactive calls. No cut-off for these calls is given here.

Key:
[1] = target: T1, Protein deacetylase HDAC6 (Homo sapiens, UniProt Q9UBN7); test: (§1) Inhibition of human KDAC6 expressed in baculovirus expression system at 30 uM using FITC-Histone 4 acetylated peptide as substrate after 60 mins by microfluidic assay; details: 1 h, 30 µM
T1 sequence (Q9UBN7 whole entry): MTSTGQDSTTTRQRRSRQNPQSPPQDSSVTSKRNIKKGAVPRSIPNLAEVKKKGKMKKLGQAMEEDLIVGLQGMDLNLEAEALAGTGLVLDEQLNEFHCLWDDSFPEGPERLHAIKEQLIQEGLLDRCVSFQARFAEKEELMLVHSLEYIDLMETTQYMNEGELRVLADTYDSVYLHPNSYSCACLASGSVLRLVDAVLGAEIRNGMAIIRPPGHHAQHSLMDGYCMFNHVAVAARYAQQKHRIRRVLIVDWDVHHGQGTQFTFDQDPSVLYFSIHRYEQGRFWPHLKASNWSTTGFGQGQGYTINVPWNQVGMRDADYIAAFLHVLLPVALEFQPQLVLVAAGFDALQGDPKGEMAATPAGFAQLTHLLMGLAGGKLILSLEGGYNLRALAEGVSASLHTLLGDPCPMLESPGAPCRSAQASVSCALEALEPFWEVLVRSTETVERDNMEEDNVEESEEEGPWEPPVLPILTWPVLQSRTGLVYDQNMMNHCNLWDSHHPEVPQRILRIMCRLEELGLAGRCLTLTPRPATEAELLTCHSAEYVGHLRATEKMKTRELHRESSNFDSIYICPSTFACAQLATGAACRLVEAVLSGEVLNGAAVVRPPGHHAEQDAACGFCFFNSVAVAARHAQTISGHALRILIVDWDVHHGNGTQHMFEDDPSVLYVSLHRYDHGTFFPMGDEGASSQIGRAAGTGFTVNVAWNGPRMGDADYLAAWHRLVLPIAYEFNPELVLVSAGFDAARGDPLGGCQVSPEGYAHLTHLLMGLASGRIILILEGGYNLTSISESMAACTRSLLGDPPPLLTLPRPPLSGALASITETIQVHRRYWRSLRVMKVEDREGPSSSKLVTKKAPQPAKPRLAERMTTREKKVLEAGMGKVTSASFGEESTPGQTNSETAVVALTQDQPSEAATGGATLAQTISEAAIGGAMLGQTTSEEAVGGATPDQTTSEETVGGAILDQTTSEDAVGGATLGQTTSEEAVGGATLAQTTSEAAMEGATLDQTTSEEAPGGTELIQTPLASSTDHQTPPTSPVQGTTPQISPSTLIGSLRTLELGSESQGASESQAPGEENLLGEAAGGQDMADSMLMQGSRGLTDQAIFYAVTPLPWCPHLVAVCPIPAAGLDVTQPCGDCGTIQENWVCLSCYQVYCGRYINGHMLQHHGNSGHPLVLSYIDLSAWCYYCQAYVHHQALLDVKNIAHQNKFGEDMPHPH

Histone deacetylase 1 = Histone deacetylase 1 (Homo sapiens, UniProt Q13547); test: Inhibition of full length human C-terminal FLAG/His-tagged KDAC1 expressed in baculovirus expression system at 30 uM using substrate A after 60 mins by microfluidic assay relative to control; details: 1 h, 30 µM
Chain of Histone deacetylase 1 (Q13547 whole entry): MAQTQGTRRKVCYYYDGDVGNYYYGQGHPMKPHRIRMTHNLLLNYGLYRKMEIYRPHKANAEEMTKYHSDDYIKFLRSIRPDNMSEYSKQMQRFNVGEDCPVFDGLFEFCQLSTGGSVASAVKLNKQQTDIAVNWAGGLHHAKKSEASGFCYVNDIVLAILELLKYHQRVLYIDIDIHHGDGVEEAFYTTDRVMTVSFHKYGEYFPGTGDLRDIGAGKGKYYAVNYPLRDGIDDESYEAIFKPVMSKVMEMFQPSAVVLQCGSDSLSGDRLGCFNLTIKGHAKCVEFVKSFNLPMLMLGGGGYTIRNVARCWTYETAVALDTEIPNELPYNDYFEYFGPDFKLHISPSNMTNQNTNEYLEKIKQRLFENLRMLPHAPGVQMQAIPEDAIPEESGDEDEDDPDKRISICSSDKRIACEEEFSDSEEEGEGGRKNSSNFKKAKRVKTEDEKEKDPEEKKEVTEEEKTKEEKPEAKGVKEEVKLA

[2] = target: T2, KDAC8 (histone deacetylase 8) (Homo sapiens, UniProt Q9BY41); test: (§2) Inhibition of full length human C-terminal His-tagged KDAC8 expressed in baculovirus expression system at 30 uM using (FAM)-labeled peptide as substrate after 60 mins by microfluidic assay relative to control; details: probe (FAM)-labeled peptide
T2 sequence (Q9BY41 whole entry): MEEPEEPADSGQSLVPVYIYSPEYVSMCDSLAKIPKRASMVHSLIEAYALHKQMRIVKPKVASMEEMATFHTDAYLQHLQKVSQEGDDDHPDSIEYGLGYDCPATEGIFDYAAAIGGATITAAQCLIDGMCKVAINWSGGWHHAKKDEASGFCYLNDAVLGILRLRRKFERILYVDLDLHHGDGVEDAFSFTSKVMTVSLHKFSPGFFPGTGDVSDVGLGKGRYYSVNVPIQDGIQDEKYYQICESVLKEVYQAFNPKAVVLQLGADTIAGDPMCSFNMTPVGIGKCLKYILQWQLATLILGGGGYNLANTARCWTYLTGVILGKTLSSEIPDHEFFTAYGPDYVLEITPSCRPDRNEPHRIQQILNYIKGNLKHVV

[3] = target: T3, Histone deacetylase 8 (Schistosoma mansoni) (UniProt A5H660); test: Inhibition of Schistosoma mansoni KDAC8 at 30 uM using (FAM)-labeled peptide as substrate after 60 mins by microfluidic assay
T3 sequence (whole entry): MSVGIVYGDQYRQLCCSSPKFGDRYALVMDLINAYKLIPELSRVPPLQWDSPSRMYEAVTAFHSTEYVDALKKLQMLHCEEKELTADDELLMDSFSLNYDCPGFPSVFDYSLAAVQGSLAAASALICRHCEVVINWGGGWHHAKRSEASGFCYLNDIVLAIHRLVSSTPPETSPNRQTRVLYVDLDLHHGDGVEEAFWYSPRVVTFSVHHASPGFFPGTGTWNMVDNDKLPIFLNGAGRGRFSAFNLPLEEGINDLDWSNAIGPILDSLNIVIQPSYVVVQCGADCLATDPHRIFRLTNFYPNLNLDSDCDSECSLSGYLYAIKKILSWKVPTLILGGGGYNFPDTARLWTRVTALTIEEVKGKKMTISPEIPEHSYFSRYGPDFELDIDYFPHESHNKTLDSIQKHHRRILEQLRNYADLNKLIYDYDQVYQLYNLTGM

[4] = target: KDAC3/NCOR2 (histone deacetylase 3/nuclear receptor corepressor 2 complex) (Homo sapiens, UniProt O15379); test: (§3) Inhibition of full length human C-terminal His-tagged KDAC3/N-terminal GST-tagged human NCOR2 (395 to 489 residues) expressed in baculovirus expression system at 30 uM using FITC-p53 acetylated peptide as substrate after 60 mins by microfluidic assay; details: probe FITC-p53 acetylated peptide
Chain of KDAC3/NCOR2 (histone deacetylase 3/nuclear receptor corepressor 2 complex) (O15379 whole entry, the tested form may be a part): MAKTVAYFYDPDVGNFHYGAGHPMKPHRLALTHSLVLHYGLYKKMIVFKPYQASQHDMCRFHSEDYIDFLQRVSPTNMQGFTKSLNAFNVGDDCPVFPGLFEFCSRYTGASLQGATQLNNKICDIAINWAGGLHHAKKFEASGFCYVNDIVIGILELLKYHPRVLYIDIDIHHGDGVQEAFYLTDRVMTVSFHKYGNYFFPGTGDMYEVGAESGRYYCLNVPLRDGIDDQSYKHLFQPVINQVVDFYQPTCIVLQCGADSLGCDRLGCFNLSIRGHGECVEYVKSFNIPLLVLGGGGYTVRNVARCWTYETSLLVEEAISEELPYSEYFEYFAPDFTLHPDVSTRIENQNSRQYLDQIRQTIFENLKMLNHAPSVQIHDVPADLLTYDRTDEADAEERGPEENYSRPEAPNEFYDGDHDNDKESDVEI
Chain of KDAC3/NCOR2 (histone deacetylase 3/nuclear receptor corepressor 2 complex) (Q9Y618 whole entry, further chain, the tested form may be a part): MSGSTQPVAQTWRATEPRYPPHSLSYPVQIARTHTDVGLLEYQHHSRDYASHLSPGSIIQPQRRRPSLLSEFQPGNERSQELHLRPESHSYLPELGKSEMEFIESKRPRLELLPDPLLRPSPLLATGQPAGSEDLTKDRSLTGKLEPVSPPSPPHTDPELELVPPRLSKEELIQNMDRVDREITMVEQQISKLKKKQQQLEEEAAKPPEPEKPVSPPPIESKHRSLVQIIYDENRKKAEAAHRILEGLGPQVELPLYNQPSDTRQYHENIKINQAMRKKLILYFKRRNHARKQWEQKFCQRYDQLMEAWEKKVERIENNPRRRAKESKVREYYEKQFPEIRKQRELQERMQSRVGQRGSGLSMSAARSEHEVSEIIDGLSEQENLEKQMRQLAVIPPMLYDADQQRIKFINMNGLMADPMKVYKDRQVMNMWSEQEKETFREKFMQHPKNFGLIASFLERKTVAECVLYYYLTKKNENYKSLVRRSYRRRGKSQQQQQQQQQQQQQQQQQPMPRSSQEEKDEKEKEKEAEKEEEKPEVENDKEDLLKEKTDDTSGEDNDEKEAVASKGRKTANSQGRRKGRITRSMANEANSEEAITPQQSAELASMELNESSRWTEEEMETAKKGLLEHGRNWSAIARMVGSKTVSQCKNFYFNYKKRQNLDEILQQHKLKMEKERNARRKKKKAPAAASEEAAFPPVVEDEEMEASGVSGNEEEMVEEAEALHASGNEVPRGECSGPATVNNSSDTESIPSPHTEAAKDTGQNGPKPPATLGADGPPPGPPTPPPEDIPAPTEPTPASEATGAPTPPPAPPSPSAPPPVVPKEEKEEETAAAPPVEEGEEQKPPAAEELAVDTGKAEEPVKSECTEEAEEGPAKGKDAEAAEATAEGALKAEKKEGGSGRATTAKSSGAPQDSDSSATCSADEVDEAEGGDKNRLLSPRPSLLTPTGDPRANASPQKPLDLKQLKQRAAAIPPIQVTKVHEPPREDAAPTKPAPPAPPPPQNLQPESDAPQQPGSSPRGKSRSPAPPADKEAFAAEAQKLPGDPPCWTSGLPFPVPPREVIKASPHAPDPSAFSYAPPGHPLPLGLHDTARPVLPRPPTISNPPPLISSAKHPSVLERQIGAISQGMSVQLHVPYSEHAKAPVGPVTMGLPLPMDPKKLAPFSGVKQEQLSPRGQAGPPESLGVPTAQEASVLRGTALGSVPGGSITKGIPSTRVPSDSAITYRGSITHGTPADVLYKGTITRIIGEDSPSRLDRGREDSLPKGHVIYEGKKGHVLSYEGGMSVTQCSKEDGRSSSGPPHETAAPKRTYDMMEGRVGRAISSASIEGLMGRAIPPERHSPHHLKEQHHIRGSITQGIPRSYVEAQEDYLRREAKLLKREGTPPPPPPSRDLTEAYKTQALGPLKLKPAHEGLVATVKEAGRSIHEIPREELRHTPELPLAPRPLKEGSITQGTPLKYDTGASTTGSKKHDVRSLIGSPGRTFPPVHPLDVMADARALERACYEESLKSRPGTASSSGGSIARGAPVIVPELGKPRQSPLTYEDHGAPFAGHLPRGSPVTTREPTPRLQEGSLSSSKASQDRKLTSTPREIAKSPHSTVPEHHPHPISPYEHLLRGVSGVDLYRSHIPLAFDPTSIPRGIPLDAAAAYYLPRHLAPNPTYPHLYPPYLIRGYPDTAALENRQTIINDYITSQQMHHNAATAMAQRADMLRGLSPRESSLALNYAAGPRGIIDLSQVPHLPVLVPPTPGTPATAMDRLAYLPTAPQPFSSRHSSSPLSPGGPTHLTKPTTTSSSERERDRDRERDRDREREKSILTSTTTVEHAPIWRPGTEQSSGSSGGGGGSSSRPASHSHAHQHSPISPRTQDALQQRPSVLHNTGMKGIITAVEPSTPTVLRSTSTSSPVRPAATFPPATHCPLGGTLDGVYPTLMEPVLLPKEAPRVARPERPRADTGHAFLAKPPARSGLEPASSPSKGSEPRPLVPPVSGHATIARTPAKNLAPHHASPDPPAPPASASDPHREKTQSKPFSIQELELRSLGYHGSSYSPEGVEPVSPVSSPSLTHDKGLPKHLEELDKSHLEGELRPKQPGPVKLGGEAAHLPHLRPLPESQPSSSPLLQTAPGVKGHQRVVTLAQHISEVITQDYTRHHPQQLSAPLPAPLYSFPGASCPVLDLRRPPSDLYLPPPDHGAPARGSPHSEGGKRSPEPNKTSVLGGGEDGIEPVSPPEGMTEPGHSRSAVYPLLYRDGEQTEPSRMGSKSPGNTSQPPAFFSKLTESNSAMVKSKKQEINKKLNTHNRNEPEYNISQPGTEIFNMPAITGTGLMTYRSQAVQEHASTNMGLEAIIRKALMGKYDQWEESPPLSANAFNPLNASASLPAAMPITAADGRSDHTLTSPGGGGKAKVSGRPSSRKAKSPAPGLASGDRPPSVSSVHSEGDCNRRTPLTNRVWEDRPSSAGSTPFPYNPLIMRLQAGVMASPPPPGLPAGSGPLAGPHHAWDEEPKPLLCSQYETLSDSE

Histone deacetylase 8 = target: T4, Histone deacetylase 8 (Homo sapiens, UniProt Q9BY41); test: as §2; details: 1 h, 30 µM
T4 sequence (Q9BY41 whole entry): T2 sequence (Q9BY41 whole entry)

[5] = target: Histone deacetylase 3/Nuclear receptor corepressor 2 (HDAC3/NCoR2) (Homo sapiens, UniProt O15379+Q9Y618); test: as §3; details: 1 h, 30 µM
Chain of Histone deacetylase 3/Nuclear receptor corepressor 2 (HDAC3/NCoR2) (O15379 whole entry): as the sequence (O15379 whole entry, the tested form may be a part) above
Chain of Histone deacetylase 3/Nuclear receptor corepressor 2 (HDAC3/NCoR2) (Q9Y618 whole entry): as the sequence (Q9Y618 whole entry, further chain, the tested form may be a part) above

[6] = target: T5, KDAC6 (protein deacetylase HDAC6) (Homo sapiens, UniProt Q9UBN7); test: as §1; details: probe FITC-Histone 4 acetylated peptide
T5 sequence (Q9UBN7 whole entry): T1 sequence (Q9UBN7 whole entry)

inhibition (INH) [1]	inhibition (INH) (Histone deacetylase 1)	inhibition at 1 h, 30 µM [2] [%]	inhibition [3]	inhibition at 1 h, 30 µM [4] [%]	inhibition (INH) (Histone deacetylase 8)	inhibition (INH) [5]	inhibition at 1 h, 30 µM [6] [%]	SMILES
Not Active	Not Active	5	inactive	1				O=C1c2ccccc2C2=C3C(O)=NN=C3CCN12
Not Active	Not Active		8%	2	Not Active			Cc1ccc(Nc2nnc(S)s2)cc1F
Not Active	Not Active		inactive		Not Active	Not Active		O=C(OCC(O)COC(=O)c1cccnc1)c1cccnc1
	Not Active		inactive	24	Not Active		20	CSc1nc(O)nnc1Sc1ccccc1
Not Active	Not Active		inactive		Not Active	Not Active		Nc1ccccc1Sc1cc(Cl)nnc1Cl
Not Active	Not Active		inactive	7	Not Active			CCOC(=O)C1=C(N)N=C(N)C1=Nc1ccc(OC)cc1
Not Active	Not Active		2%	3	Not Active			C=CCN=C(S)Nc1cccc([N+](=O)[O-])c1
Not Active	Not Active		12%		Not Active	Not Active		CC(=O)OCCn1c([N+](=O)[O-])cnc1/C=[N+](\[O-])C1CCCCC1
Not Active	Not Active		3%	3	Not Active			COC(=O)C(=Cc1ccccc1[N+](=O)[O-])C(=O)OC
Not Active	Not Active		2%	6	Not Active			NC(=O)c1ccccc1OCC(=O)Nc1ccc(Cl)c(Cl)c1
Not Active	Not Active	7	16%	7				O=C(NCc1ccco1)Nc1cccc([N+](=O)[O-])c1
Not Active	Not Active	4	2%			Not Active		Cc1cc(C)n(C(=N)NC(=O)c2ccc([N+](=O)[O-])cc2)n1
Not Active	Not Active	6	5%			Not Active		CCOC(=O)Nc1ccc2nc(N3CCCCCC3)sc2c1
Not Active	Not Active		1%		Not Active	Not Active		Cc1cc(-n2cnc3c(O)ncnc32)ccc1N
Not Active	Not Active		inactive		Not Active	Not Active		Cc1cc(NC(=O)Nc2cc(F)ccc2F)no1
	Not Active		inactive	8	Not Active		3	CSC1=NC=C(C#N)C2=NC(c3ccc(Cl)cc3)NN12 (stereo not given)
Not Active	Not Active		inactive		Not Active	Not Active		CC(C)NCC1CCc2cc(CO)c([N+](=O)[O-])cc2N1 (stereo not given) [OXAMNIQUINE]
Not Active	Not Active		12%	1	Not Active			NS(=O)(=O)c1ccc(Nc2ccccc2)c([N+](=O)[O-])c1
Not Active	Not Active		10%		Not Active	Not Active		Clc1ccc(Nc2nnc(-c3ccc4c(c3)OCO4)o2)cc1
Not Active	Not Active	15	inactive	2				CCOC(=O)c1cc2c(OC)c(OC)ccc2c2ncc(C#N)c(O)c12
Not Active	Not Active	7	inactive	3				Cc1c(COC(=O)N(C)C)c(COC(=O)NC(C)C)c2n1CS(=O)(=O)C2
Not Active	Not Active		6%		Not Active	Not Active		O=C(O)c1ccccc1C(=O)Nc1ccccc1[N+](=O)[O-]
Not Active	Not Active	4	inactive			Not Active		S=C(SCc1cc(Cl)cc2c1OCOC2)N1CCSCC1
Not Active	Not Active		2%		Not Active	Not Active		CCOP(=O)(OCC)/C(C#N)=C/c1ccc([N+](=O)[O-])cc1
	Not Active		inactive	9	Not Active		21	CCOC(=O)CSc1nc2nc(Cl)c(Cl)[nH]c-2n1
	Not Active		inactive	10	Not Active		18	O=C1CSC(=S)N1/N=C/c1c[nH]c2ccc(Br)cc12
